Source: a melting point compilation (Tetko et al.; mined from patent text by program, amines drawn as free bases though some values may be those of a salt)

| Structure (SMILES) | melting point [°C] |
| --- | --- |
| CCCCSc1c(CC(C)(C)C(=O)O)n(Cc2ccc(Cl)cc2)c2ccc(C(C)C)cc12 | 129 to 130 |
| CN1C(=O)C(CCCCBr)Sc2ccccc21 (stereo not given) | 116 |
| CC(=O)c1cc2nc(S(=O)Cc3nccc4c3OCO4)[nH]c2cc1C (stereo not given) | 178 to 180 |
| COC(=O)c1csc(NC(=O)c2cc(OC)c(OC)cc2OC)n1 | 251 to 252 |
| CC1(C)Oc2ccsc2C(N2CCCCC2=O)C1O (stereo not given) | 151 to 152 |
| O=C(O)Cn1c(=O)c(=O)[nH]c2cc([N+](=O)[O-])c(-n3ccc(CN4CCCCC4)c3)cc21 | > 250 |
| CCOC(=O)Cc1[nH]c(C(=O)c2ccccc2)c(C)c1C(=O)O | 183 to 185 |
| CC(=O)N1C(=O)NC(=O)CC1C (stereo not given) | 107 to 109 |
| CC(COc1ccc(CC2SC(=O)N(C(c3ccccc3)(c3ccccc3)c3ccccc3)C2=O)cc1)NC(=O)OC(C)(C)C (stereo not given) | 153 to 157 |
| c1cnc(SCc2nc3ccccc3[nH]2)nc1 | 154 to 155 |
| O=S(=O)(c1ccccc1)N1CCC(C(O)(c2ccc(F)cc2)C2CCCCC2)CC1 (stereo not given) | 106 to 109 |
| CC(=O)NC(C(=O)c1ccccc1N)[N+](=O)[O-] (stereo not given) | 178 to 179 |
| CNC(=O)Nc1ccc(O)cc1 | 169 to 171 |
| COC(=O)c1c(C(C)(C)O)nc(C(C)OC)n1Cc1ccc(-c2ccccc2-c2nnnn2C(c2ccccc2)(c2ccccc2)c2ccccc2)cc1 (stereo not given) | 131 to 133 |
| CCCCCCCCCCCCCCOc1ccccc1CO | 33 to 34 |
| COC(=O)CCC(=O)OC1CC(C)(C)N(O)C(C)(C)C1 | 76 |
| O=c1c2c(CC3CCCCC3)n[nH]c2c2cccnc2n1-c1ccccc1 | 280 to 281 |

| Structure (SMILES) | melting point [°C] |
| --- | --- |
| CCCc1cc2c(cc1O)C(C)(C)CCC2(C)C | 96 to 97 |
| CCCOc1ccc(S(=O)(=O)N2CCN(CCOC(=O)c3ccccc3)CC2)cc1-c1nc2c(CCC)cn(CC)c2c(=O)[nH]1 | 78 to 79 |
| NS(=O)(=O)C1C=CC=CC1(CCNC(=O)C=Cc1cccs1)OCCOC(F)(F)F (stereo not given) | 203 to 205 |
| O=C1OC(COc2ccccc2)CN1CCO (stereo not given) | 89 to 91 |
| OCc1ccc(CO)c(Br)c1 | 104 |
| CCOC(=O)c1c(NC)c(N=O)c2ccccn12 | 156 to 157 |
| O=[N+]([O-])c1ccc(Sc2cc(Cl)cc(Cl)c2)c(S(=O)(=O)NC2CN3CCC2CC3)c1 (stereo not given) | 256 |
| O=C1NC2CCCC1NC2=O | 280 to 283 |
| COc1cc2sc(C(=O)O)c(Cl)c2cc1OC | > 260 |
| CCCC(OC)(C(=O)n1ccnc1)c1ccc(Cl)cc1Cl (stereo not given) | 99 to 101 |
| O=C(Nc1ccc(CN2C(=O)[C@H]3CCC[C@H]3N(C(=O)CN3C(=O)c4ccccc4C3=O)c3ccccc32)cc1)c1ccccc1F (relative stereo) | 238 to 240 |
| O=C(Nc1ccc(C(=O)O)cc1)OCc1nccn1-c1cc2cc(C(=O)O)c(=O)[nH]c2cc1Cl | 249 to 251 |
| O=C(CCNC(=O)C(Cc1ccccc1)CP(=O)(O)O)OCc1ccccc1 (stereo not given) | 122 to 123 |
| CC(=O)NCCOC1=C2C=C(S(N)(=O)=O)SC2S(=O)(=O)CC1 (stereo not given) | 177 to 181 |
| C#CCOC(=O)c1cccnc1C1=NC(C)(C(C)C)C(=O)N1 (stereo not given) | 188 to 190 |
| CC(C)Nc1c(-c2cc(F)cc(F)c2F)c(Cl)nc2ncnn12 | 151 |

Other lines, results leading:

| melting point [°C] | Structure (SMILES) |
| --- | --- |
| 269 to 271 | CC(=O)Nc1ccc(-c2nc(C(=O)Nc3nccs3)c(-c3ccccc3C)[nH]2)cc1 |
| 134 to 136 | CCOCc1nc2c(N)nc3cc(-c4ccccc4)cnc3c2n1CCCON=C(C)C |
| 184 to 186 | COC(=O)CCNC(=O)c1ccc2c(c1)nc(-c1ccc(C(=N)N)cc1)n2CCCCc1ccccc1 |
| 196 | CC1(C)OC(c2ccc(S(C)(=O)=O)cc2)=C(Br)C1=O |
| 210 | CC(O)=C(C#N)C(=O)N1CCN(c2ccc(NC(=O)c3cnn(-c4ccc(F)cc4)c3C)cc2C#N)CC1 |
| 118 to 120 | Cc1c(C)c2c(c(C)c1NCc1ccc(F)cc1)C(c1ccc(F)cc1)C(C)(C)O2 (stereo not given) |
| 265 to 266 | COc1ccc(Cl)cc1-c1c(N)c(=O)[nH]c2c(C(F)(F)F)cccc12 |
| 144 to 145 | O=C(c1cccnc1)c1cc2cc(Br)ccc2o1 |
| 76 to 77 | O=CC1c2ccccc2CCc2ccccc21 |
| 203 to 204 | Cc1ccnc2[nH]c(C3CC3)nc12 |
| 272 to 275 | Fc1ccc2[nH]c(C3=Cc4ccccc4C3)cc2c1 |
| 210 to 214 | COc1cc2c(cc1OC)C(c1ccc([N+](=O)[O-])cc1)=NN(c1ccccn1)[C@H](C)C2 |
| 105 to 107 | Oc1cc(-c2ncc(C(F)(F)F)cc2Cl)ccc1Cl |
| 223 to 225 | COc1ccccc1Oc1cccc2c1C(=O)N(C1CCC(=O)NC1=O)C2=O (stereo not given) |
| 128 to 130 | COc1ccc(S(=O)(=O)C(CC(=O)NO)Cc2ccc(OCc3ccccc3)cc2)cc1 (stereo not given) |
| 242 to 244 | S=C1Nc2ccccc2CN(c2ccccc2)N1 |
| 79 to 80 | Cc1ccc(CCCc2c(C(C)C)nc(C(C)C)c(CO)c2-c2ccc(F)cc2)cc1 |
| 83 to 83.5 | COc1ccc(C2=NCCc3c(C)cccc32)cc1 |
| 84 to 85 | Cc1cc(OCc2coc(C=Cc3ccc(OC(F)(F)F)cc3)n2)ccc1COCCn1ccnn1 |

| melting point [°C] | Structure (SMILES) |
| --- | --- |
| 82 to 83 | O=C1OC(=O)C(c2ccccc2)=C1Cl |
| 163 | c1ccc(-c2cnc3cc4ccccc4cc3n2)cc1 |
| 124 to 125 | CC(=O)NC1(c2ccc(CN3CCN(c4ccc(F)cc4F)CC3)cc2)CC1 |
| 145 to 148 | Clc1ccccc1-c1cnc2nncn2n1 |
| 159 | COc1cc(Nc2nccc(-c3nccs3)n2)cc(OC)c1OC |
| 268 | Cc1csc2c1c(-c1ccccc1Cl)nc(=O)n2C |
| 164 to 165 | CC(Oc1cccc(C(=O)NCCN(O)C(N)=O)c1)c1ccccc1 (stereo not given) |
| 137 to 139 | Cc1c(CC(C)(C)C(=O)O)n(Cc2ccc(Cl)cc2)c2ccc(OCc3cccc(-c4ccccc4)n3)cc12 |
| 200 to 201 | O=C(Nc1cccnc1)N1CCN(c2nccc(-c3ccccc3F)n2)CC1 |
| 102 to 104 | CC(C)c1cc(Oc2ccc(Cl)cc2)nc(C(C)C)c1[N+](=O)[O-] |
| 59 to 72 | CCN(CC)c1ccc(N(c2ccc(N(CC)CC)cc2)C2(c3ccc(N(C)C)cc3C)OC(=O)c3ccccc32)cc1 (stereo not given) |
| 140 to 141 | CCN(CC)CCOC(=O)C(C)(c1ccc(O)cc1)c1ccc(O)cc1 |
| 138 to 139 | Cn1cc(C(=O)c2ccccn2)cc1C(=O)c1ccc(Cl)cc1 |
| 234 to 236 | Cn1nc(-c2ccc(Cl)c(NS(C)(=O)=O)c2)c2ccccc2c1=O |
| 100 to 101 | O=[N+]([O-])c1cccc(OCc2ccccc2)c1[N+](=O)[O-] |
| 199 | COc1ccc2ccc(Nc3cc(-c4ccc(C(F)(F)F)cc4)ncn3)cc2n1 |
| 113 to 114 | COc1ccc2cc([C@H](C)C(=O)OCC(=O)N(C)CC(=O)OCCO)ccc2c1 |
| 247 to 249 | O=C1CCC(N2Cc3c(OCc4cccc(CN5CCOCC5)c4)cccc3C2=O)C(=O)N1 (stereo not given) |
